Source: patent US6545033B1, “Fused 1-(2,6-dichloro-4-trifluoromethylphenyl)-pyrazoles, the synthesis thereof and the use thereof as pesticides” (3-Dimensional Pharmaceuticals, Inc., priority 1999, dated 2003)

Legend:
Housefly GABA receptors = target: T1, Housefly GABA receptors (Musca domestica, UniProt Q75NA5); experiment: In vitro assay of binding to housefly GABA receptors (3H-EBOB displacement, housefly neuronal membranes); details: for Compounds with the most activity (housefly 3H-EBOB binding): housefly neuronal membranes
T1 sequence (Q75NA5 30-576): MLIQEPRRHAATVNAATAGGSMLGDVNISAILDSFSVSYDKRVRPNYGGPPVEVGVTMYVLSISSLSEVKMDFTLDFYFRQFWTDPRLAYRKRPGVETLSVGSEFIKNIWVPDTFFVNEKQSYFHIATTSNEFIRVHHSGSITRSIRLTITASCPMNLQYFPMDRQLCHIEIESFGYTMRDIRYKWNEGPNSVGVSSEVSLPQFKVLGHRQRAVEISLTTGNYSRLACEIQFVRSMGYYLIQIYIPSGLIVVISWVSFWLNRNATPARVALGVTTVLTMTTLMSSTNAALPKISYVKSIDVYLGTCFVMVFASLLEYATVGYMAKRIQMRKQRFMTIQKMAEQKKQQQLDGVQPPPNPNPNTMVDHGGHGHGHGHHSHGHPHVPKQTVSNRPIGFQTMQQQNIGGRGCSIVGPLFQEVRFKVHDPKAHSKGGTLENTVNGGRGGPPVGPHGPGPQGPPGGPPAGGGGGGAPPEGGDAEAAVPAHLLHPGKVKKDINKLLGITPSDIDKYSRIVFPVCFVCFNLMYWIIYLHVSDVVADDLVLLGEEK
Outline: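 Head neuronal membranes (20/35% sucrose interface) incubated 45 min at 24 °C in 10 mM phosphate, 300 mM NaCl, pH 7.5, with 3H-EBOB (added solution 5.2 nM) and membranes added at 0.5–1.0 mg/mL. Bound label captured on polyethylenimine-treated glass fibre filters and counted by scintillation.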

[1] = tested on: houseflies (Musca domestica); experiment: In vivo housefly contact assay; details: contact in coated glass test tube, about 24 hours; mM = concentration of the DMSO solution, about 1 μL applied
Method: This example describes an in vivo assay to screen compounds for their ability to kill houseflies via contact. Newly emerged houseflies (Musca domestica, available from Rincon-Vitova Insectaries, Inc., Ventura, Calif.) were sedated with carbon dioxide gas, collected in 50 mL polypropylene conical tubes containing filter paper saturated with 10% (w/w) sucrose in water, and allowed to feed at room temperature for about 2-4 hours. Test compounds were dissolved as in dimethylsulfoxide (DMSO) at concentrations ranging from about 0.05 mM to about 100 mM. About 1 μL of dissolved test compound and about 100 μL of isopropanol were dispensed into the bottom of a 9 mL screw-top glass test tube. Positive control test tubes were prepared in the same manner except that no test compounds were dissolved in the DMSO. Each test tube was rolled to coat the sides with the chemical solution, and allowed to air dry 24-48 hours. About 20 houseflies were sedated by refrigeration at 0-4° C. and transferred to each test tube. Each test tube was sealed with organdy cloth secured by an open top screw cap and laid horizontally in the dark. After about 24 hours, the healthy, moribund, and dead houseflies in each test tube were counted. The percentage of dead houseflies in each test tube was then calculated using the formula M=100(D−(FC/100))/(F−(FC/100)), in which M is the percentage of dead houseflies due to the addition of the test compound, D is the number of dead houseflies in the test tube, F is the total number of houseflies in the test tube, and C is the percentage of dead houseflies in the control test tubes.

Row | Structure (SMILES) | Compounds with the most activity (housefly 3H-EBOB binding) (Housefly GABA receptors) | LD50 (mM), Flies [1] | IC50 (Housefly GABA receptors; displacement of 5.2 nM 3H-EBOB, housefly head neuronal membranes, about 45 min at about 24° C., read-out: IC50 (nM), Fly Head)
1 | FC(F)(F)c1cc(Cl)c(-n2cc3c(n2)CCCCC3)c(Cl)c1 [Compound 15, 2-[2,6-Dichloro-4-(trifluoromethyl)phenyl]-2,4,5,6,7,8-hexahydrocyclohepta[c]pyrazole] | most activity | >100 mM | –
2 | FC(F)(F)c1cc(Cl)c(-n2cc3c(n2)CSC3)c(Cl)c1 [Compound 3, 2-[2,6-Dichloro-4-(trifluoromethyl)phenyl]-4,6-dihydrothieno-[3,4-c]pyrazole] | most activity | 2.7 mM | –
3 | FC(F)(F)c1cc(Cl)c(-n2cc3c(n2)CCC3)c(Cl)c1 [Compound 11, 2-[2,6-Dichloro-4-(trifluoromethyl)phenyl]-2,4,5,6-tetrahydrocyclopenta[c]pyrazole] | most activity | >100 mM | 83 nM
